Measurements from patent US20260226101A1, “PEPTIDE WITH ANTI-INFLAMMATORY AND ANTI-MICROBIAL ACTIVITY” (priority 2023, published 2026).
Ends that are not written are not given here.

How the values were obtained:
Test in all cases: Time-kill assay
Type in all cases: cell-based
[1] = tested on: Klebsiella pneumoniae ATCC 700603; details: K. pneumoniae
Protocol: (§1) The survival of bacteria, time kill efficacy assay of IS 111 was further evaluated for activity against bacterial strain mentioned above according to CLSI reference method, with slightly modification. MICs were determined by broth microdilution assay as described above. […] Test tubes of MHB without test compound IS 111 were used as vehicle controls. Overnight cultures of the bacterial strains at cell densities of approximately 1×10^8 CFU/ml were used to inoculate both test and control tubes. The standard tube dilution method was opted to evaluate the time-kill efficacy of bacteria. Bacterial inoculum (1 mL) was diluted by adding 9 mL sterile saline solution and serially diluted up to 10^−3. […] 100 μL incubated suspension was transferred on the agar plates and spread through the spreader. Colony counts were performed after 24 h incubation at 37° C. Plates with 10-300 colonies were used for these counts, and the kill rate was determined by plotting log 10 viable counts (CFU/ml) against time. Bactericidal activity was defined as a ≥3 log 10 decreases in CFU/ml of the initial microbial population, while bacteriostatic activity was defined was defined as a <3 log 10 decrease in CFU/ml. The assay was performed in triplicate [Olufunmiso O Olajuyigbe et al., 2015; Sutthiwan Thammawat et al., 2017]
(§2) The time-kill kinetics antibacterial study of the Peptide IS 111 was carried out to assess the killing rate of the compound within a given contact time. The survival of bacteria, time kill efficacy assay of IS 111 was further evaluated for activity against Escherichia coli ATCC 8739 and Staphylococcus aureus ATCC 6538, Pseudomonas aeruginosa ATCC 9027 and Klebsiella pneumoniae ATCC 700603 according to CLSI reference method, with slightly modification. MICs were determined by broth microdilution assay as described above. […] 10. Test tubes of MHB without test compound Peptide IS 111 were used as vehicle controls. Overnight cultures of the bacterial strains at cell densities of approximately 1×10^6 CFU/ml were used to inoculate both test and control tubes.
(§3) After each interval, ten-fold dilutions were prepared with normal saline, and 100 μL incubated suspension was transferred on the agar plates and spread through the spreader. Colony counts were performed after 24 h incubation at 37° C. Plates with 10-300 colonies were used for these counts, and the kill rate was determined by plotting log 10 viable counts (CFU/ml) against time. Bactericidal activity was defined as a ≥3 log 10 decrease in CFU/ml of the initial microbial population, while bacteriostatic activity was defined as a <3 log 10 decrease in CFU/ml. The assay was performed in triplicate. The proportion of cells surviving at 60 min was calculated, as was the mean and standard deviation. Proportions of surviving cells were compared using Student's 2-tailed t-test, assuming unequal variance and differences were considered significant where p≤0.05.

[2] = tested on: Pseudomonas aeruginosa ATCC 9027; details: P. aeruginosa
Protocol: as §1, §2, §3

[3] = tested on: Staphylococcus aureus ATCC 6538; details: S. aureus
Protocol: as §1, §2, §3

Substance: FAKKFAK [IS 111, Phe-Ala-Lys-Lys-Phe-Ala-Lys]
- Viable count ([1]; 0.5 × MIC, 0 h): 4.8 ± 0.50 1 × 10^5 CFU/ml
- Viable count ([1]; 0.5 × MIC, 1 h): 4.2 ± 0.35 1 × 10^5 CFU/ml
- Viable count ([1]; 0.5 × MIC, 2 h): 3.4 ± 0.55 1 × 10^5 CFU/ml
- Viable count ([1]; 0.5 × MIC, 3 h): 2.9 ± 0.45 1 × 10^5 CFU/ml
- Viable count ([1]; 0.5 × MIC, 4 h): 2.1 ± 0.48 1 × 10^5 CFU/ml
- Viable count ([1]; 0.5 × MIC, 5 h): 1.7 ± 0.30 1 × 10^5 CFU/ml
- Viable count ([1]; 0.5 × MIC, 12 h): 1.5 ± 0.33 1 × 10^5 CFU/ml
- Reduction in viability ([1]; 0.5×MIC (3.13 μg/ml), 24 h): < 1 log 10 CFU/ml
- Type of activity (bacteriostatic or bactericidal) ([1]; 0.5×MIC, 24 h): bacteriostatic
- Viable count ([1]; 0.5×MIC, 24 h): 0.8 ± 0.13 1 × 10^5 CFU/ml
- Viable count ([1]; 1 × MIC, 0 h): 5.1 ± 0.23 1 × 10^5 CFU/ml
- Viable count ([1]; 1 × MIC, 1 h): 4.0 ± 0.18 1 × 10^5 CFU/ml
- Viable count ([1]; 1 × MIC, 2 h): 1.9 ± 0.40 1 × 10^5 CFU/ml
- Viable count ([1]; 1 × MIC, 3 h): 1.2 ± 0.15 1 × 10^5 CFU/ml
- Viable count ([1]; 1 × MIC, 4 h): 0.6 ± 0.03 1 × 10^5 CFU/ml
- Viable count ([1]; 1 × MIC, 5 h): 0.5 ± 0.05 1 × 10^5 CFU/ml
- Viable count ([1]; 1 × MIC, 12 h): 0.2 ± 0.15 1 × 10^5 CFU/ml
- Viable count ([1]; 1 × MIC, 24 h): 0 1 × 10^5 CFU/ml
- Time to bacteriostatic activity ([1]; 1×MIC (6.25 μg/ml)): ≤ 24 h
- Viable count ([1]; 5 × MIC, 0 h): 5.6 ± 0.18 1 × 10^5 CFU/ml
- Viable count ([1]; 5 × MIC, 1 h): 1.8 ± 0.13 1 × 10^5 CFU/ml
- Viable count ([1]; 5 × MIC, 2 h): 0.9 ± 0.08 1 × 10^5 CFU/ml
- Viable count ([1]; 5 × MIC, 3 h): 0.6 ± 0.08 1 × 10^5 CFU/ml
- Viable count ([1]; 5 × MIC, 4 h): 0.4 ± 0.05 1 × 10^5 CFU/ml
- Viable count ([1]; 5 × MIC, 5 h): 0 1 × 10^5 CFU/ml
- Viable count ([1]; 5 × MIC, 12 h): 0 1 × 10^5 CFU/ml
- Viable count ([1]; 5 × MIC, 24 h): 0 1 × 10^5 CFU/ml
- Time to bacteriostatic activity ([1]; 5×MIC (31.25 μg/ml)): ≤ 5 h
- Viable count ([2]; 0.5 × MIC, 0 h): 6.3 ± 0.30 1 × 10^5 CFU/ml
- Viable count ([2]; 0.5 × MIC, 1 h): 5.4 ± 0.18 1 × 10^5 CFU/ml
- Viable count ([2]; 0.5 × MIC, 2 h): 4.9 ± 0.15 1 × 10^5 CFU/ml
- Viable count ([2]; 0.5 × MIC, 3 h): 4.1 ± 0.20 1 × 10^5 CFU/ml
- Viable count ([2]; 0.5 × MIC, 4 h): 3.5 ± 0.15 1 × 10^5 CFU/ml
- Viable count ([2]; 0.5 × MIC, 5 h): 2.8 ± 0.23 1 × 10^5 CFU/ml
- Viable count ([2]; 0.5 × MIC, 12 h): 2.4 ± 0.15 1 × 10^5 CFU/ml
- Reduction in viability ([2]; 0.5×MIC (1.56 μg/ml), 24 h): 1 log 10 CFU/ml
- Type of activity (bacteriostatic or bactericidal) ([2]; 0.5×MIC, 24 h): bacteriostatic
- Viable count ([2]; 0.5×MIC, 24 h): 2.1 ± 0.25 1 × 10^5 CFU/ml
- Viable count ([2]; 1 × MIC, 0 h): 6.4 ± 0.15 1 × 10^5 CFU/ml
- Viable count ([2]; 1 × MIC, 1 h): 4.0 ± 0.30 1 × 10^5 CFU/ml
- Viable count ([2]; 1 × MIC, 2 h): 1.9 ± 0.20 1 × 10^5 CFU/ml
- Viable count ([2]; 1 × MIC, 3 h): 1.0 ± 0.08 1 × 10^5 CFU/ml
- Viable count ([2]; 1 × MIC, 4 h): 0.5 ± 0.08 1 × 10^5 CFU/ml
- Viable count ([2]; 1 × MIC, 5 h): 0.2 ± 0.05 1 × 10^5 CFU/ml
- Viable count ([2]; 1 × MIC, 12 h): 0.0 1 × 10^5 CFU/ml
- Viable count ([2]; 1 × MIC, 24 h): 0.0 1 × 10^5 CFU/ml
- Time to bacteriostatic activity ([2]; 1×MIC (3.13 μg/ml)): ≤ 12 h
- Viable count ([2]; 5 × MIC, 0 h): 6.4 ± 0.15 1 × 10^5 CFU/ml
- Viable count ([2]; 5 × MIC, 1 h): 0.4 ± 0.10 1 × 10^5 CFU/ml
- Viable count ([2]; 5 × MIC, 2 h): 0.0 1 × 10^5 CFU/ml
- Viable count ([2]; 5 × MIC, 3 h): 0.0 1 × 10^5 CFU/ml
- Viable count ([2]; 5 × MIC, 4 h): 0.0 1 × 10^5 CFU/ml
- Viable count ([2]; 5 × MIC, 5 h): 0.0 1 × 10^5 CFU/ml
- Viable count ([2]; 5 × MIC, 12 h): 0.0 1 × 10^5 CFU/ml
- Viable count ([2]; 5 × MIC, 24 h): 0.0 1 × 10^5 CFU/ml
- Viable count ([3]; 0.5 × MIC, 0 h): 5.1 ± 0.65 1 × 10^5 CFU/ml
- Viable count ([3]; 0.5 × MIC, 1 h): 4.6 ± 0.48 1 × 10^5 CFU/ml
- Viable count ([3]; 0.5 × MIC, 2 h): 3.8 ± 0.68 1 × 10^5 CFU/ml
- Viable count ([3]; 0.5 × MIC, 3 h): 3.2 ± 0.58 1 × 10^5 CFU/ml
- Viable count ([3]; 0.5 × MIC, 4 h): 2.5 ± 0.58 1 × 10^5 CFU/ml
- Viable count ([3]; 0.5 × MIC, 5 h): 2.1 ± 0.43 1 × 10^5 CFU/ml
- Viable count ([3]; 0.5 × MIC, 12 h): 1.8 ± 0.43 1 × 10^5 CFU/ml
- Reduction in viability ([3]; 0.5×MIC (1.56 μg/ml), 24 h): 2 log 10 CFU/ml
- Type of activity (bacteriostatic or bactericidal) ([3]; 0.5×MIC, 24 h): bacteriostatic
- Viable count ([3]; 0.5×MIC, 24 h): 1.2 ± 0.23 1 × 10^5 CFU/ml
- Viable count ([3]; 1 × MIC, 0 h): 5.3 ± 0.10 1 × 10^5 CFU/ml
- Viable count ([3]; 1 × MIC, 1 h): 3.7 ± 0.43 1 × 10^5 CFU/ml
- Viable count ([3]; 1 × MIC, 2 h): 1.6 ± 0.48 1 × 10^5 CFU/ml
- Viable count ([3]; 1 × MIC, 3 h): 0.7 ± 0.15 1 × 10^5 CFU/ml
- Viable count ([3]; 1 × MIC, 4 h): 0.3 ± 0.15 1 × 10^5 CFU/ml
- Viable count ([3]; 1 × MIC, 5 h): 0.2 ± 0.00 1 × 10^5 CFU/ml
- Viable count ([3]; 1 × MIC, 12 h): 0 1 × 10^5 CFU/ml
- Viable count ([3]; 1 × MIC, 24 h): 0 1 × 10^5 CFU/ml
- Time to bacteriostatic activity ([3]; 1×MIC (3.13 μg/ml)): ≤ 12 h
- Viable count ([3]; 5 × MIC, 0 h): 5.6 ± 0.30 1 × 10^5 CFU/ml
- Viable count ([3]; 5 × MIC, 1 h): 0.8 ± 0.13 1 × 10^5 CFU/ml
- Viable count ([3]; 5 × MIC, 2 h): 0.4 ± 0.08 1 × 10^5 CFU/ml
- Viable count ([3]; 5 × MIC, 3 h): 0 1 × 10^5 CFU/ml
- Viable count ([3]; 5 × MIC, 4 h): 0 1 × 10^5 CFU/ml
- Viable count ([3]; 5 × MIC, 5 h): 0 1 × 10^5 CFU/ml
- Viable count ([3]; 5 × MIC, 12 h): 0 1 × 10^5 CFU/ml
- Viable count ([3]; 5 × MIC, 24 h): 0 1 × 10^5 CFU/ml
- Time to bacteriostatic activity ([3]; 5×MIC (15.6 μg/ml)): ≤ 2 h
